Entries after “also recorded” stand apart in the source; their conditions may differ.
Tests used:
NK-92 invasion = conditions: transmigration assays; cited from earlier work
MCF-7-red target cells = experiment: ECM invasion and cytotoxicity assay: NK-92 cells over matrigel layered on MCF-7-red cells (impedance and live cell imaging, xCELLigence RTCA eSight); format: cell-based, human; conditions: for killing of target cells by NK-92 (drop in impedance): MMP inhibitor 2 μM and 10 μM in matrigel and media
Protocol: An exemplary protocol is described as follows. Briefly, varying volumes of matrigel (50-110 microliters (μL)/well; 6 milligrams (mg)/millilter (mL)) representing increasing distance for invasion is layered over MCF-7 (available from American Type Culture Collection (ATCC)) human breast adenocarcinoma cells stably expressing nuclear-localized red fluorescent protein (MCF-7). NK-92 cells (available from Creative Bioarray, ATCC) are added over the solidified matrigel layer at E:T of 3:1. eLive Green (available from Agilent Technologies, shown in green) is added at 1 μL/mL. A broad spectrum MMP inhibitor (such as GM6001, available from Selleck Chemicals) is used to evaluate the role of matrix metalloproteinases (MMPs).
The ability of NK-92 cells to invade the matrigel and kill the MCF-7-red target cells was evaluated by concurrent impedance and imaging readouts on an XCELLIGENCE RTCA ESIGHT® imaging and sensing system (available from Agilent Tech., Inc.). Background impedance signal was measured with 50 μL of EMEM media in the wells of E-plate VIEW microplate (available from Agilent Technologies, Cat#0030060101030). MCF-7-red target cells (30,000 in 100 μL) were added to each well. The plate was placed at room temperature for thiry minutes to facilitate an even distribution of cells at the bottom. […] Impedance readings were collected every fifteen minutes, and photos were taken every sixty minutes. Images from four fields of view were acquired in each well in brightfield, red, and green fluorescence channels. […] Percent cytolysis was calculated from normalized cell impedance readings at seventy-two hours using the formula: [(1−(treated/untreated)*100]. […]
The ability of NK-92 cells to invade the matrigel and kill the MCF7-red target cells was evaluated by concurrent impedance and imaging readouts on an XCELLIGENCE RTCA ESIGHT® imaging and sensing system as outlined in FIG. 6A. Background impedance signal was measured with 50 μL of EMEM media in the wells of E-plate VIEW microplate. […]

A431 cells [1] = experiment: EpCAM-CAR-T cytotoxicity assay, A431 cells cultured in DMEM media (no matrigel); format: cell-based, human; conditions: Pemigatinib 5 μM and 10 μM, E:T 3.5, DMEM media
Protocol: […] […] Tumor cell growth and CAR-T cytotoxicity were determined from real-time impedance and live cell imaging data collected on the XCELLIGENCE RTCA ESIGHT® imaging and sensing system. Pemigatinib (1 μM, 5 μM and 10 μM), an inhibitor of FGFR isoforms 1-3, sold under the brand name Pemazyre was used to evaluate the role of FGFR signaling. Percent cytolysis was calculated from normalized cell impedance and imaging (red fluorescence) data using the formula [(1−(treated/control)*100].
[…] The background impedance signal was measured with 50 μL of c-DMEM media in the wells of E-plate VIEW microplate (Agilent Technologies, Cat#0030060101030). […] Impedance was read every 15 minutes and images were taken every 60 minutes. Images from four fields of view were acquired for each well in brightfield and red fluorescence channel. […]
(§1) The software generates a real-time plot of impedance data with time (X-axis) and Cell Index (CI, Y-axis). […] Normalized Cell Index (NCI(t)) was calculated by dividing the CI at time t (CI(t)) with CI at normalization time point (CI(tnormalization)). […] Percent cytolysis was calculated from NCI (impedance) using the formula [(1−(CAR-T treated/Pemigatinib treated)*100]. Percent cytolysis was calculated from red object counts/well (imaging) using the formula [(1−(CAR-T treated/Pemigatinib treated)*100].

A431-red target cells = experiment: ECM invasion and cytotoxicity assay: EpCAM-CAR-T cells over matrigel layered on A431-red cells (impedance and imaging); format: cell-based, human; conditions: for percent cytolysis (CAR-T killing): matrigel
Protocol: (§2) Briefly, matrigel (6 mg/ml) was layered (50 μL/ell) over A431-red target tumor cells expressing nuclear-localized mKate2 (red fluorescent protein). After 2 h, epithelial cell adhesion molecule (EpCAM)-CAR-T cells were seeded over the matrigel layer. Tumor cell growth and CAR-T cytotoxicity were determined from real-time impedance and live cell imaging data collected on the XCELLIGENCE RTCA ESIGHT® imaging and sensing system. Pemigatinib (1 μM, 5 μM and 10 μM), an inhibitor of FGFR isoforms 1-3, sold under the brand name Pemazyre was used to evaluate the role of FGFR signaling. Percent cytolysis was calculated from normalized cell impedance and imaging (red fluorescence) data using the formula [(1−(treated/control)*100].
(§3) The ability of EpCAM-CAR-T cells to invade the matrigel and kill A431-red target cells was evaluated using impedance and imaging readouts on an XCELLIGENCE RTCA ESIGHT® imaging and sensing system. The background impedance signal was measured with 50 μL of c-DMEM media in the wells of E-plate VIEW microplate (Agilent Technologies, Cat#0030060101030). Cell suspension of A 431-red cells was prepared in c-DMEM at desired cell numbers to be aliquot at 100 μL/well. After the addition of tumor cells, the E-plate was allowed to rest at room temperature for 30 min to facilitate an even distribution at the bottom. […] Impedance was read every 15 minutes and images were taken every 60 minutes. Images from four fields of view were acquired for each well in brightfield and red fluorescence channel. […]
as §1

A431 cells [2] = experiment: A431 cell proliferation, normalized cell index over time; format: cell-based, human
Protocol: as §2
as §3, with “μL/well.” for “μL/well. After the addition of tumor cells, the E-plate was allowed to rest at room temperature for 30 min to facilitate an even distribution at the bottom.”

## CNC(=O)[C@H](Cc1c[nH]c2ccccc12)NC(=O)[C@@H](CC(=O)NO)CC(C)C [GM6001, Ilomostat]
NK-92 invasion
  NK-92 invasion in matrigel in the presence of MMP inhibitor: reduced
MCF-7-red target cells; 2 μM and 10 μM
  target cell killing by GFP-NK92 cells (percent cytolysis from normalized impedance and red fluorescence imaging): delayed and reduced target cell killing
MCF-7-red target cells
  killing of target cells by NK-92 (drop in impedance): delayed but not abrogated
MCF-7-red target cells; listed as Ilomostat
  killing of target cells by NK-92 (drop in impedance): delayed the killing of target cells

## CCN1C(=O)N(c2c(F)c(OC)cc(OC)c2F)Cc2cnc3[nH]c(CN4CCOCC4)cc3c21 [Pemigatinib]
A431 cells [1]
  A431 cytolysis by EpCAM-CAR-T cells in the presence of Pemigatinib: accelerated
A431-red target cells; 5 μM Pemigatinib with EpCAM-CAR-T
  percent cytolysis (CAR-T killing): ~20%
A431-red target cells; 10 μM Pemigatinib with EpCAM-CAR-T
  percent cytolysis (CAR-T killing): −40%
A431-red target cells; E:T=20:1 and 1 μM Pemigatinib
  elimination of A431 cells in invasion assays: Complete elimination
A431 cells [2]; in the presence of matrigel, 1, 5 and 10 μM tested
  proliferation of A431 cells (normalized cell index): reduces the proliferation of A431 cells in the presence of matrigel in a concentration-dependent manner; also recorded: reduced the proliferation of A431 cells with increasing concentrations tested
A431 cells [2]; native DMEM media, no matrigel
  proliferation of A431 cells (normalized cell index): slows the proliferation of A431 cells in native DMEM media in a concentration dependent manner

Source: patent US20260185979A1, “APPARATUSES AND METHODS FOR ANALYZING LIVE CELLS” (AGILENT TECHNOLOGIES, INC., priority 2022, published 2026)
